Here are results for five molecules from patent US12241094B2, “Phenazine degrading agents and related compositions, methods and systems for interfering with viability of bacteria” (priority 2016, dated 2025).

Where two headings read alike, the source gives them in different places. Marks after values point to notes of the source that are not given here.

For series [1], the system named is Pa PA14 biofilm transcriptome. Put plainly: RNASeq transcriptome of biofilm cultures. The class given is cell-based, P. aeruginosa. The note with it: 5 h. The method, then:
Because 1-OH-PHZ induces iron starvation in A. fumigatus (Briard et al. (2015) Scientific Reports. 2015; 5), it was speculated that the abrogation of biofilm development in P. aeruginosa grown in the presence of either PodA or 1-OH-PHZox may be mediated by a response to Fe-limitation. To test this idea, changes to the transcriptome of Pa PA14 by RNASeq were assessed. After 5 h of incubation in the presence of PodA (1 μM), 1-OH-PHZ (200 μM) or PYO (200 μM), RNA was prepared from 1 ml of biofilm cultures (250 μl pooled from 4 static biofilm chambers) for analysis on an Illumina HiSeq 2500 sequencer at the Millard and Muriel Jacobs Genetics and Genomics Laboratory, as previously described (Babin et al. (2016) Proc Natl Acad Sci USA. 113(5):E597-E605; Kreamer et al. (2015) M Bio. 2015; 6(2):e02549. Epub 2015/02/26). This experiment was designed to identify genes that were likely to be specifically affected by PodA's transformation of PYO to 1-OH-PHZ under a condition that inhibited biofilm formation (FIG. 20A). As a reference for genes responsive to iron availability, these transcriptomes were compared to those previously found to respond to Fe(II) shock (Kreamer et al. (2015) M Bio. 2015; 6(2):e02549. Epub 2015/02/26).

The subject of series [2] is PA14. Put plainly: Redox cycles over 7 days and support of survival (Table 1). In kind it is cell-based, P. aeruginosa.
The conditions of series [3]: oxidized form, values from references a, c, d; cited from earlier work.
Series [4] deals with PA14. Put plainly: Reduction of redox-active compounds by PA14 (Table 1). In kind it is cell-based, P. aeruginosa.
For series [5], the system named is P. aeruginosa planktonic culture. Put plainly: Phenazines in planktonic P. aeruginosa cultures (HPLC). The class given is cell-based. The conditions noted are these: 24 hours. The text has this: Product was cut with DpnI to remove WT vector, phosphorylated with T4 polynucleotide kinase, and ligated to generate a circular mutant protein expression construct. For D72N and Y156F mutants, DNA fragments encoding the mutation were synthesized (Integrated DNA Technologies) and cloned into pET-20b(+) as for the wild type sequence. Enzymes for cloning were purchased from New England Biolabs. Constructs were transferred to E. coli BL21(DE3) for expression. All mutations were confirmed by Sanger sequencing (Laragen and Retrogen). When necessary, 100 μg mL^−1 carbenicillin was included in all growth media to maintain selection for the plasmid. To measure the effect of PodA30-162 on phenazine production in planktonically grown P. aeruginosa, cultures were grown overnight in 5 mL volumes of tryptic soy broth (TSB) or succinate minimal medium (arginine medium recipe from Glasser et al., 2014 with 40 mM sodium succinate in place of arginine) (3) in the presence 1 μg mL^−1 PodA30-162. Cells were removed by centrifugation and supernatants were analyzed by HPLC as previously described (9). See below for a description of biofilm growth of P. aeruginosa PA14. To induce protein expression, an overnight culture was inoculated 1/1000 in Terrific Broth (BD Difco). Cultures were grown in baffled Erlenmeyer flasks (1 L culture per 3 L flask) at 37° C. with 150 rpm agitation in a shaking incubator (Innova 44 shaking incubator, New Brunswick). After 3-4 hours, the temperature was changed to 16° C. and cultures were induced with 50 μM (final concentration) IPTG and left to incubate overnight. Cells were then pelleted by centrifugation, flash frozen in liquid N2, and stored at −80° C. for up to 1 month before protein purification.

The test system of series [6] is Pa PA14 biofilm. Put plainly: Biofilm biomass by DAPI intensity (Example 7). The class given is cell-based, P. aeruginosa. The method, then: In this example, to check for an effect of PodA or 1-OH-PHZ on biofilm development, Pa PA14 was grown in 8-well chambered microscope slides designed for biofilm imaging, as previously reported (Das et al. (2015) Sci Rep. 5:8398). Overnight cultures of Pa PA14 were diluted to a starting optical density of 0.25 and grown directly on the slides (volume of 250 μl per chamber). After 5 h incubation at 37° C., planktonic cells were rinsed from the slide and remaining cells were stained with DAPI. Biofilm biomass was quantified by DAPI intensity on a Leica confocal microscope, with LAS X software. Pa PA14 incubated in the presence of 1 μM PodA or 100 μM 1-OHPHZox had ˜50% the biofilm biomass of Pa PA14 alone (FIG. 20A).

The conditions of series [7]: Kidani 1958; cited from earlier work.
For series [8], the system named is P. aeruginosa biofilm. Put plainly: Optical density of P. aeruginosa biofilm. The class given is cell-based. The note with it: PodA vs inactive E154A; 1-OH-PHZ vs 1% DMSO.
Series [9] relates to P. aeruginosa biofilm. Put plainly: Microcolony number and size in 5 hour biofilms on succinate minimal medium. The class given is cell-based. The conditions noted are these: 100 μM 1-OHPHZ or 0.5 μg mL-1 PodA. The text has this: FIGS. 24A-C show charts and images illustrating results of exemplary experiments showing that PodA and 1-OH-PHZ inhibit the early stages of P. aeruginosa biofilm formation on succinate minimal medium. […] Numbers are averages and SD from 8 biological replicates.

Series [10] relates to Pa PA14 biofilms. Put plainly: Tobramycin tolerance of Pa PA14 biofilms. The class given is cell-based, P. aeruginosa. The method, then:
In varying the amount of added 1-OH-PHZox, it was observed a dose-dependent response: the greater the [1-OHPHZox], the greater the biofilm inhibition, yet, under these conditions, saturating at 200 μM (FIG. 20B). To set the stage for flow-cell experiments to explore PodA and 1-OH-PHZ effects on biofilm inhibition and biofilm dissolution, the time course for biofilm development was mapped for Pa PA14 constitutively expressing YFP under constant flow in a minimal medium (FIG. 20C) as previously described (Wang et al. (2011) J Bacteriol. 193(14):3606-17). In addition, an appropriate initial tobramycin concentration to use in Pa PA14 biofilm experiments was also identified to test the hypothesis that PodA or 1-OH-PHZ can sensitize biofilms to antibiotics: Pa PA14 biofilms tolerate 20 μg/ml, 10× the MIC for tobramycin for planktonic cultures, similar to what has been reported for biofilms of Pa PAO1 (Bjarnsholt et al. (2005) Microbiol-Sgm. 2005; 151:373-83).

Series [11] can be described thus: Redox potential E0' (vs. NHE) of redox-active compounds. In kind it is physicochemical. The conditions noted are these: measured in aqueous solution at pH 7 in this study (footnote b).
Series [12] relates to S. oneidensis MR1. The note with it: 100 μM PYO vs absence of PYO; cited from earlier work.
The subject of series [13] is S. aureus MN8. The conditions noted are these: 100 μM PYO vs absence of PYO; cited from earlier work.
Series [14] has as its system P. aeruginosa Δphz. The conditions noted are these: 25 μM PYO; images from Ramos et al., 2010; cited from earlier work.
For series [15], the system named is E. coli DH5α. The conditions noted are these: 100 μM PYO vs absence of PYO; cited from earlier work.
For series [16] the following is noted: PYO's hydroxyl group; cited from earlier work.

On to `Oc1cccc2nc3ccccc3nc12` [1-OH-PHZ, 1-Hydroxyphenazine], for which the “upregulation of genes in iron responsive pathways” value in series [1] (200 μM) is on record as 2-10 fold. Also, the “expression of small gene cluster incl. QapR regulon” value in series [1] is on record as “upregulated modestly”. In addition, in [2], the “# of Redox cycles over 7 days” value is 14 and the “Support survival?” value is “Yes”. The “E^0, (vs. NHE)” value in series [3] is −174^a mV. Also, in series [4], the “Reduction by PA14?” value was “Yes”. The “production of PYO” value in series [5] (minimal medium with succinate) is on record as “negative impact”. Moreover, the phenazine production result in series [5] (tryptic soy broth) is “changes to the concentrations of all four phenazines”. Further, the “biofilm biomass relative to Pa PA14 alone” value in series [6] (1 μM PodA or 100 μM 1-OHPHZox, 5 h at 37° C) is given as ~50%. For the same molecule, in [6] (PodA 1 μM, 1-OH-PHZ 100 μM, total DAPI staining), the “biofilm formation compared to untreated control” value is on record as “inhibit biofilm formation”. The “concentration at which biofilm inhibition saturates” value in series [6] (dose-dependent response) is 200 µM. In addition, the “log of the equilibrium constant βmlh of binding copper” value in [7] was 8.68. Moreover, in series [8], the “optical density of biofilm” value was “not significantly different”. In addition, in series [9], the microcolony diameter entry is on record as “does decrease”. Besides, the “number of microcolonies formed” value in series [9] (vs inactive E154A) is “does not significantly affect”.
Consider `NC[C@H]1O[C@H](O[C@H]2[C@H](O)[C@@H](O[C@H]3O[C@H](CO)[C@@H](O)[C@H](N)[C@H]3O)[C@H](N)C[C@@H]2N)[C@H](N)C[C@@H]1O` [tobramycin], for which, in series [10], the “tobramycin concentration tolerated by biofilms” value was found to be 20 µg/mL and the “tolerated concentration relative to MIC for planktonic cultures” value was 10 × the MIC.
Turning to `O=C(O)Cc1cc(O)ccc1O` [Homogentisic acid (HMA), Homogentisic acid], the “E^0, (vs. NHE)” value in series [11] is reported as “+306^b mV”. In addition, in series [2], the “# of Redox cycles over 7 days” value is “No cycle” and the “Support survival?” value is given as “No”.
`CN(C)c1ccc2nc3ccc(=[N+](C)C)cc-3sc2c1` [Methylene blue (MB), Methylene blue]: the “E^0, (vs. NHE)” value in [11] was 0 mV; in [3], “+11 mV”. The “# of Redox cycles over 7 days” value in [2] is 3. Also, the “Support survival?” value in series [2] was “No”. Also, in series [4], the “Reduction by PA14?” value is on record as “Yes”.
Turning to `Cn1c2cccc(=O)c-2nc2ccccc21` [PYO, Pyocyanin], the “log(2) changes relative to untreated control, metal scavenging and starvation response genes (FIG. 21A)” value in series [1] (PodA 1 μM, 1-OH-PHZ 200 μM, PYO 200 μM) was ~0 log(2). The “# of Redox cycles over 7 days” value in series [2] was determined as 31. Moreover, in [2], the “Support survival?” value is listed as “Yes”. Moreover, the colony growth entry in series [12], in [13] and in series [15] was “decreased colony growth” throughout. Besides, the “E^0, (vs. NHE)” value in series [3] is −40^a mV. Also, the “Reduction by PA14?” value in series [4] is given as “Yes”. Further, in [14], the “biofilm production of Δphz” value is “restored”. For the same molecule, the pKa in series [16] is recorded as ~5.

Broadly, the pKa is the pH at which an ionisable group is half protonated.
